In patent US9833497B2, “Human originated EGF domain proteins and use of the same” (CHENGDU SOURCEBIO LIMITED-LIABILITY COMPANY, priority 2013, dated 2017):

What was measured:
Assay type in all cases: cell-based
Aeromonas hydrophila = test: MIC against Gram-negative bacteria: Aeromonas hydrophila; conditions: 10 h cultivation at 37° C.; for MIC against A. hydrophila: Aeromonas hydrophila
Outline: (§1)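 Antibacterial activity of purified human EGF domain proteins: two-fold concentration series, triplicate wells, LB broth, 5×10^5 CFU/mL bacteria, 37° C shaking incubation. The lowest concentration without growth defines the MIC.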

E. coli DH5α = test: Antibacterial activity: MIC and growth curve against E. coli DH5α in 96-well plate; conditions: minimal inhibitory concentration against E. coli DH5α; 96-well plate, 5×10^5 CFU/mL, 37° C., judged after 8 h
Outline: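 Log-phase DH5α (OD600 about 0.5, 37° C, 185 rpm in LB) was pelleted, resuspended in fresh LB and seeded at 5×10^5 CFU/mL with recombinant protein at 50, 25 and 12.5 μg/mL (two-fold series), in triplicate. Plates were shaken at 175 rpm, 37° C, and OD600 was read every 30 min. MIC was the lowest concentration with no growth.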

Pseudomonas aeruginosa = test: MIC against Gram-negative bacteria: Pseudomonas aeruginosa; conditions: 10 h cultivation at 37° C.; for MIC against P. aeruginosa: Pseudomonas aeruginosa
Outline: as §1

E. coli BL21 = test: MIC against Gram-negative bacteria: E. coli BL21; conditions: E. coli BL21, 10 h cultivation at 37° C.
Outline: as §1

Enterobacter cloacae = test: MIC against Gram-negative bacteria: Enterobacter cloacae; conditions: 10 h cultivation at 37° C.; for MIC against E. cloacae: Enterobacter cloacae
Outline: as §1

Proteus mirabilis = test: MIC against Gram-negative bacteria: Proteus mirabilis; conditions: 10 h cultivation at 37° C.; for MIC against P. mirabilis: Proteus mirabilis
Outline: as §1

Serratia marcescens = test: MIC against Gram-negative bacteria: Serratia marcescens; conditions: 10 h cultivation at 37° C.; for MIC against S. marcescens: Serratia marcescens
Outline: as §1

Klebsiella pneumonia = test: MIC against Gram-negative bacteria: Klebsiella pneumonia; conditions: 10 h cultivation at 37° C.; for MIC against K. pneumonia: Klebsiella pneumonia
Outline: as §1

Proteus vulgaris = test: MIC against Gram-negative bacteria: Proteus vulgaris; conditions: 10 h cultivation at 37° C.; for MIC against P. vulgaris: Proteus vulgaris
Outline: as §1

Moraxella catarrhalis = test: MIC against Gram-negative bacteria: Moraxella catarrhalis; conditions: 10 h cultivation at 37° C.; for MIC against M. catarrhalis: Moraxella catarrhalis
Outline: as §1

Citrobacter diversus = test: MIC against Gram-negative bacteria: Citrobacter diversus; conditions: 10 h cultivation at 37° C.; for MIC against C. diversus: Citrobacter diversus
Outline: as §1

Row | Substance | MIC against A. hydrophila (Aeromonas hydrophila; 5×10^5 CFU/mL) [µg/mL] | MIC (E. coli DH5α) [µg/mL] | MIC against P. aeruginosa (Pseudomonas aeruginosa; 5×10^5 CFU/mL) [µg/mL] | MIC against E. coli BL21 (E. coli BL21; 5×10^5 CFU/mL) [µg/mL] | MIC against E. cloacae (Enterobacter cloacae; 5×10^5 CFU/mL) [µg/mL] | MIC against P. mirabilis (Proteus mirabilis; 5×10^5 CFU/mL) [µg/mL] | MIC against S. marcescens (Serratia marcescens; 5×10^5 CFU/mL) [µg/mL] | MIC against K. pneumonia (Klebsiella pneumonia; 5×10^5 CFU/mL) [µg/mL] | MIC against P. vulgaris (Proteus vulgaris; 5×10^5 CFU/mL) [µg/mL] | MIC against M. catarrhalis (Moraxella catarrhalis; 5×10^5 CFU/mL) [µg/mL] | MIC against C. diversus (Citrobacter diversus; 5×10^5 CFU/mL) [µg/mL] | other results
1 | PRT1344 (DIDECSPLPCLNNGVCKDLVGEFICECPSGYTGQRCE; listed as Homo sapiens) | 50 | 12.5 | 25 | 50 | 25 | 12.5 | 25 | 12.5 | 50 | 50 | 12.5 | 
2 | PRT209 (DVDECAQALHDCRPSQDCHNLPGSYQCTCPDGYR; listed as Homo sapiens) |  | 12.5 |  |  |  |  |  |  |  |  |  | MIC (μg/mL) A. hydrophila (Aeromonas hydrophila; A. hydrophila, 5×10^5 CFU/mL): 12.5 µg/mL; MIC (μg/mL) P. aeruginosa (Pseudomonas aeruginosa; P. aeruginosa, 5×10^5 CFU/mL): 12.5 µg/mL; MIC (μg/mL) E. coli BL21 (E. coli BL21; 5×10^5 CFU/mL): 12.5 µg/mL; MIC (μg/mL) E. cloacae (Enterobacter cloacae; E. cloacae, 5×10^5 CFU/mL): 12.5 µg/mL; MIC (μg/mL) P. mirabilis (Proteus mirabilis; P. mirabilis, 5×10^5 CFU/mL): 12.5 µg/mL; MIC (μg/mL) S. marcescens (Serratia marcescens; S. marcescens, 5×10^5 CFU/mL): 12.5 µg/mL; MIC (μg/mL) K. pneumonia (Klebsiella pneumonia; K. pneumonia, 5×10^5 CFU/mL): 25 µg/mL; MIC (μg/mL) P. vulgaris (Proteus vulgaris; P. vulgaris, 5×10^5 CFU/mL): 50 µg/mL; MIC (μg/mL) M. catarrhalis (Moraxella catarrhalis; M. catarrhalis, 5×10^5 CFU/mL): 12.5 µg/mL; MIC (μg/mL) C. diversus (Citrobacter diversus; C. diversus, 5×10^5 CFU/mL): 12.5 µg/mL
3 | PRT966 (PSHPCAHEPCSHGICYDAPGGFRCVCEPGWSGPRCS; listed as Homo sapiens) |  | 50 |  |  |  |  |  |  |  |  |  | MIC (Aeromonas hydrophila; A. hydrophila): 50 µg/mL; MIC (Pseudomonas aeruginosa; P. aeruginosa): 50 µg/mL; MIC (E. coli BL21): 12.5 µg/mL; MIC (Enterobacter cloacae; E. cloacae): 12.5 µg/mL; MIC (Proteus mirabilis; P. mirabilis): 50 µg/mL; MIC (Serratia marcescens; S. marcescens): 12.5 µg/mL; MIC (Klebsiella pneumonia; K. pneumonia): 25 µg/mL; MIC (Proteus vulgaris; P. vulgaris): 25 µg/mL; MIC (Moraxella catarrhalis; M. catarrhalis): 12.5 µg/mL; MIC (Citrobacter diversus; C. diversus): 25 µg/mL
4 | PRT437 (DEDECAAGNPCSHSCHNAMGTYYCSCPKGLTIAADGRTCQ; listed as Homo sapiens) |  | 50 |  |  |  |  |  |  |  |  |  | MIC (Aeromonas hydrophila; A. hydrophila, 5×10^5 CFU/mL): 25 µg/mL; MIC (Pseudomonas aeruginosa; P. aeruginosa, 5×10^5 CFU/mL): 50 µg/mL; MIC (E. coli BL21; 5×10^5 CFU/mL): 12.5 µg/mL; MIC (Enterobacter cloacae; E. cloacae, 5×10^5 CFU/mL): 12.5 µg/mL; MIC (Proteus mirabilis; P. mirabilis, 5×10^5 CFU/mL): 12.5 µg/mL; MIC (Serratia marcescens; S. marcescens, 5×10^5 CFU/mL): 50 µg/mL; MIC (Klebsiella pneumonia; K. pneumonia, 5×10^5 CFU/mL): 25 µg/mL; MIC (Proteus vulgaris; P. vulgaris, 5×10^5 CFU/mL): 25 µg/mL; MIC (Moraxella catarrhalis; M. catarrhalis, 5×10^5 CFU/mL): 25 µg/mL; MIC (Citrobacter diversus; C. diversus, 5×10^5 CFU/mL): 50 µg/mL
5 | PRT1467 (QPQDCPPSTCLNGGTCHLGTRHHLACLCPEGFTGLYCE; listed as Homo sapiens) | 25 | 25 | 25 | 50 | 50 | 50 | 12.5 | 12.5 | 25 | 25 | 12.5 | 
6 | PRT1445 (PCLNDCGPYGQCLLLRRHSYLYASCSCKAGWRGWSCT; listed as Homo sapiens) | 50 | 50 | 50 | 12.5 | 50 | 50 | 50 | 50 | 25 | 25 | 25 | 
